# According to PubChem BioAssay (NCI):
#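 All cell lines were grown in 96-well plates and treated with compound for 48 hours. GI50 is the concentration that inhibits growth by half. TGI is the concentration that stops growth completely.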
# Assays:
# Test in all cases: DTP human tumour cell line panel, 48 h
# [1] = tested on: ACHN renal
# [2] = tested on: CCRF-CEM leukemia
# [3] = tested on: HOP-62 NSCLC
# [4] = tested on: IGROV1 ovarian
# [5] = tested on: NCI-H460 lung
# [6] = tested on: SF-295 CNS
# [7] = tested on: SK-MEL-2 melanoma
# [8] = tested on: SNB-19 CNS
# [9] = tested on: UACC-257 melanoma
# [10] = tested on: UACC-62 melanoma
Compound,GI50 [1] [µM],TGI [1] [µM],GI50 [2] [µM],TGI [2] [µM],GI50 [3] [µM],TGI [3] [µM],GI50 [4] [µM],TGI [4] [µM],GI50 [5] [µM],TGI [5] [µM],GI50 [6] [µM],TGI [6] [µM],GI50 [7] [µM],TGI [7] [µM],GI50 [8] [µM],TGI [8] [µM],GI50 [9] [µM],TGI [9] [µM],GI50 [10] [µM],TGI [10] [µM]
C[As](C)SC1OC(CO)C(O)C1O (stereo not given),0.257,1.03,0.259,1.13,3.58,13.4,1.32,6.56,1.46,11.7,2.28,7.16,0.708,2.92,8.68,> 57.6,1.72,13.6,0.385,1.54
CCOc1nc(-c2ccccc2)cc2c(O)c(-c3nnco3)[nH]c(=O)c12,5.02,> 100,3.04,> 100,4.12,> 100,3.63,> 89.8,4.01,> 100,4.28,> 54.4,9.4,> 46.9,6.13,> 62.4,3.2,> 100,6.47,> 100
CSc1nc2c(nc(C)c(=O)n2C2OCC(OC(C)=O)C(OC(C)=O)C2OC(C)=O)c(=O)[nH]1 (stereo not given),,> 100,,> 100,,> 100,,> 100,,> 100,,> 100,,> 100,,> 100,,> 100,,> 100
COc1ccc(C(=O)c2cc(OC)c(C)c(OC)c2)cc1OC(=O)CCl,0.7,35.5,0.331,> 100,0.668,> 100,1.19,> 100,0.37,12.7,0.764,30.7,0.671,66.1,0.388,> 100,14,> 95.8,1.61,22.4
CC(C)(C)C(=O)OCOP(=O)(OCOC(=O)C(C)(C)C)C1CCCN(O)C1=O (stereo not given),0.34,7.97,0.185,2.3,0.487,6.63,0.393,2.73,0.561,12.9,3.9,> 100,1.55,8.76,0.551,28.7,1.19,13.5,0.318,2.1
CC(SC(C)C(=O)N/N=C/c1cccc(Cl)c1)C(=O)N/N=C\c1cccc(Cl)c1 (stereo not given),5.53,> 100,5.77,52.3,13.9,31.4,18.4,69.3,2.34,4.92,14.1,35,6.9,25.3,21.7,> 100,32.3,> 100,20.3,46.2
CC1OC(n2cc(F)c(=O)[nH]c2=O)C=CC1O (stereo not given),,> 100,,> 77.9,,> 100,,> 100,,> 100,,> 100,,> 100,,> 100,,> 100,,> 100
Oc1ccc(Cl)cc1Cc1cc(Cl)cc(Cl)c1O,3.69,18,6.53,88,3.68,21,6.31,28.9,3.22,13.2,6.66,57.5,5.53,29,3.83,28.9,5.01,32.5,4.55,18.8
C=C(F)C(=O)N1CCN(c2nc(OC[C@@H]3CCCN3C)nc3c2CCN(c2cccc4cccc(Cl)c24)C3)C[C@@H]1CC#N,0.962,2.58,1.05,4.32,< 0.01,1.48,1.31,3.2,1.05,2.38,1.48,3.13,1.4,2.8,1.19,5.32,1.57,3.1,1.66,3.25
CC(=O)OC1Oc2ccccc2-c2oc(=O)c(-c3cc(=O)oc4cc(O)ccc34)cc21 (stereo not given),23.1,79.2,9.38,40.8,20.8,55.2,20.8,83.6,21.5,73.7,8.74,25.2,19.2,89,26.6,> 100,23.9,79,18.8,39
COC(=O)C(C(=O)C(=O)Nc1cccc(OC)c1)c1cnc2ccccc2n1 (stereo not given),,> 100,,> 100,,> 100,,> 100,,> 100,,> 100,,> 100,,> 100,,> 100,,> 100
